# Experimental data reported in US20020143012A1, “Phenoxazine analogs useful as amyloid aggregation inhibitors and treatment of alzheimer's disease and disorders related to amyloidosis” (priority 2000, published 2002).
# “And” between values parts separate entries of the source, which are not always exact repeats. Equal values may be shown once. Read-outs that look alike come from different tables or passages of the source.
# What was measured:
# Aβ(1-40) peptide = target: T1, Aβ(1-40) peptide (Homo sapiens, UniProt P05067); assay: BAPA (Beta-Amyloid Peptide Aggregation), pH 6.0, filtration endpoint; assay type: biochemical
# T1 construct: 10 μL 0.5 mg/mL Aβ(1-40) peptide in 20% HFIP
# Method: 3. BAPA (Beta-Amyloid Peptide Aggregation)
# This assay is used to provide a measure of inhibition by a compound against the aggregation behavior of the beta amyloid peptide.
# The purpose of this assay is to provide a higher volume method of assaying the amount of beta amyloid aggregation using an endpoint assay based on filtration. In this assay, hexafluoroisopropanol (HFIP) is used to break down the initial amyloid peptide to a monomer state and a concentration of 33 μM is used, a concentration which is high enough so that aggregation will occur at pH 6.0 in several hours.
# β-Amyloid Peptide Aggregation, pH 6.0 (BAPA)
# To a 96-well plate (Costar 3794) is added 25 μL 50 mM Phosphate Buffer (pH 6.0), 10 μL 0.5 mg/mL Aβ(1-40) peptide in 20% HFIP+0.1 μL/assay radioiodinated ^125I Aβ(1-40) [^125I Aβ(1-40)], and 1 μL of the compound to be tested, starting at […] with a concentration of DMSO<1%. The reaction is incubated for 2 to 4 hours at room temperature. The reaction is stopped with 200 μL of 50 mM phosphate buffer, pH 6.0, and filtered through a 0.2 μm 96-well filter plate (Millipore MAGU N22). The filter plate is washed with 100 μL of the same phosphate buffer. Aggregation is detected on a Microbeta counter after impregnating the filters with Meltilex (1450-441) and is corrected for background.
# Aβ(1-40) [1] = target: T2, Aβ(1-40) (Homo sapiens, UniProt P05067); assay: BASSR (Beta-Amyloid Self-Seeding Radioassay), inhibitors of self-seeded amyloid fibril growth; assay type: biochemical; conditions: 30 μM soluble Aβ(1-40), 125I-labeled Aβ(1-40), 37° C. 3 to 5 hours; replicate values; ppt = precipitate formed at the indicated concentration
# T2 construct: Soluble Aβ(1-40) peptide (Bachem, Torrance, Calif.); purchased Bachem, Torrance, Calif
# Method: 1. BASSR (Beta-Amyloid Self-Seeding Radioassay)
# (§1) An assay for inhibitors of self-seeded amyloid fibril growth
# (§2) Assay Buffer—50 mM sodium phosphate, pH 7.5, 100 mM NaCl, 0.02% NaN3, 1 M urea (filter and store at 4° C.)
# Soluble Aβ(1-40) peptide (Bachem, Torrance, Calif.)—2.2 mg/mL in […] deionized H2O (is stored in aliquots at −20° C.; is kept on ice when thawed) will self-seed after 1 week storage. Typically, the solution is stored until no lag phase is seen in the assay.
# ^125I-labeled Aβ(1-40)—150K to 350K cpm/μL in 100% acetonitrile−0.1% trifluoroacetic acid (TFA)—1% β-mercaptoethanol (aliquots stored at −20° C). ^125I-labeled Aβ(1-40) is made in accordance with the procedure set forth by LeVine H., III, in Neurobiol. Aging, 1995;16:755, which is hereby incorporated by reference, or this reagent may be purchased from Amersham, Arlington Heights, Ill.
# Final assay conditions: 30 μM soluble Aβ(1-40) in deionized water in assay buffer+20K to 50K cpm ^125I-labeled Aβ (1-40) per assay. Compound to be tested is dissolved in dimethylsulfoxide (DMSO), typically 5 to 50 mM stock, such that the final concentration of DMSO is<1% v/v in the assay.
# Assay: Reaction mixture for 50 assays (on ice) is comprised of 0.1 to 0.2 μL of ^125I-labeled A^125I-labeled Aβ(1-40)+1 μL of soluble Aβ(1-40)+13.5 μL assay buffer per assay. The following are the amounts of the components of the reaction mixture sufficient for 50 assay wells.
# 1) The reaction mixture of above is prepared by mixing components and storing on ice.
# b 2) 14.5 μL of the reaction mixture is pipetted into each of 50 wells on a polypropylene U-bottom 96-well microtiter plate on ice (Costar 3794).
# (§3) 3) 1.7 μL of diluted compound to be tested is added to each well in a column of eight, including solvent control. Serial 3-fold dilutions from 1 mM (100 μM final) in assay buffer−urea=7 dilutions+zero. Each 96-well plate can therefore accommodate 11 samples+1 Congo Red control (0.039-5 μM final in 2-fold steps).
# 4) The plate with aluminum film (Beckman 538619) is sealed and incubated for 10 minutes on ice.
# (§4) 5) The temperature is raised to 37° C. and incubated for 3 to 5 hours (depending on the lot of the peptide).
# 6) The aluminum film is removed and 200 μL/well of ice cold assay buffer with urea is added. The radiolabeled fibrils are collected by vacuum filtration through 0.2 μm pore size GVWP filters in 96-well plates (Millipore MAGV N22, Bedford, Mass.). The radioactivity of the filters is determined by using standard methods well-known to those skilled in the art.
# Aβ(1-40) [2] = target: T2, Aβ(1-40); assay: BASST (Beta-Amyloid Self-seeding, Thioflavin T), inhibitors of self-seeded amyloid fibril growth; assay type: biochemical; conditions: 30 μM soluble Aβ(1-40), 37° C. 3 to 5 hours, thioflavin T fluorescence; replicate values
# Method: 2. BASST (Beta-Amyloid Self-seeding, Thioflavin T)
# as §1, §2
# Soluble Aβ(1-40)—2.2 mg/mL in deionized H2O (is stored in aliquots at −20° C.; is kept on ice when thawed) will self-seed after 1 week storage. Typically, the solution is stored until no lag phase is seen in the assay.
# Final assay conditions: 30 μM soluble Aβ(1-40) in deionized water in assay buffer. Compound to be tested is dissolved in DMSO, typically 5 to 50 mM stock, such that the final concentration of DMSO is<1% v/v in the assay.
# Assay: Reaction mixture for 50 assays (on ice) is comprised of 1 μL of soluble Aβ(1-40)+13.5 μL assay buffer per assay. The following are the amounts of the components of the reaction mixture that result in each of the 50 assay wells.
# 1) The reaction mix above is prepared by mixing the components and storing on ice.
# 2) 14.5 μL of reaction mixture is pipetted into each of 50 wells of a polystyrene U-bottom, 96-well microtiter plate (Corning 25881-96) on ice.
# as §3
# 4) The plate with aluminum film is sealed and incubated for 10 minutes on ice.
# as §4
# 6) The aluminum film is removed and 250 μL/well of 5 μM thioflavin T (ThT) [T-3516, Sigma-Aldrich] is added in 50 mM glycine-NaOH, pH 8.5. Fluorescence is read on a plate reader (ex=440 nm/20 nm; em=485 nm/20 nm) within 5 minutes.
# Aβ(1-42) = target: T3, Aβ(1-42) (Homo sapiens, UniProt P05067); assay: BATYM assay, Aβ(1-42) aggregation by Thioflavin T fluorescence; assay type: biochemical; conditions: Aβ1-42 final concentration 100 μM, 37° C. 1 day, ThT fluorescence; (P)/(Q) marks undefined
# T3 construct: Required Aβ(1-42) (California Peptide) is dried from its hexafluoroisopropanol (HFIP) stock solution; purchased California Peptide
# Method: Required Aβ(1-42) (California Peptide) is dried from its hexafluoroisopropanol (HFIP) stock solution. The Aβ(1-42) is dissolved in DMSO and then mixed with phosphate buffered saline (PBS) (pH 7.4). The mixed Aβ(1-42) solution is filtered with a GVWP 0.22 μm syringe filter (Millipore, Bedford, Mass.). The compound to be tested in DMSO (50 times concentrate) is put into each well (0.5 μL/well) of a 96-well plate. The Aβ(1-42) solution is added into each well (25 μL/well). The plate is centrifuged at 1000 g for 5 minutes and incubated at 37° C. for 1 day (Aβ1-42; final concentration 100 μM).
# After incubation Thioflavin T (ThT) (30 μM) solution in glycine-NaOH buffer (pH 8.5, 50 mM) is added into each well (250 μL/well), fluorescence is measured (ex=440/20 nm, em=485/20 nm) using a fluorescence plate reader. The inhibitory activity is calculated as the reduction of fluorescence with the following formula:
# Inhibition (%)={(F(Aβ)−F(Aβ+compound)}/{F(Aβ)−F(solvent−compound)}×100.
# The IC50s are calculated by a curve-fitting program using the equation given below. The data is obtained from two different experiments in triplicate.
# x=concentration of tested compound (M),
# [3] = 33 μM Aβ(1-40), pH 6.0, 2 to 4 hours at room temperature, (Q) mark undefined, read-out: BAPA (IC50 = μM)
# [4] = marked (BAPA2), variant not described, read-out: BAPA (IC50 = μM), value marked (BAPA2)
# T3 sequence (P05067 672-713): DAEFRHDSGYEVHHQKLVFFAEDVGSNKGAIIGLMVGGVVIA
# T1 sequence (P05067 672-711): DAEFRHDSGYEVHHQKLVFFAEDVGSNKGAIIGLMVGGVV
# T2 sequence (P05067 672-711): as above
Compound,melting point,IC50 (Aβ(1-40) peptide; [3]),IC50 (Aβ(1-40) [1]),IC50 (Aβ(1-40) [2]),IC50 (Aβ(1-42)),IC50 (Aβ(1-40) peptide; [4])
"O=C(O)c1cc([N+](=O)[O-])cc2c1Nc1ccc(CCc3ccc(Cl)c(Cl)c3)cc1O2 [Compound 5, 7-[2-(3,4-dichlorophenyl)ethyl]-3-nitrophenoxazinecarboxylic acid]",> 250 °C,0.9 µM,60 µM and > 100 µM,3 µM and 1 µM,7.89 µM and 3.02 µM,
"O=C(O)c1cc([N+](=O)[O-])cc2c1Nc1cc(-c3ccccc3)ccc1O2 [Compound 2, 3-nitro-8-phenylphenoxazinecarboxylic acid]",,5 µM,60 µM (2×) and 70 µM,1 µM,4.15 µM,
3-Nitrophenoxazinecarboxylic acid [Compound 3],,62 µM,8 µM,13 µM (2×) and 40 µM (2×) and 23 µM (2×),,> 100 µM
"Nc1cc2c(c(C(=O)O)c1)Nc1ccc(CCCc3ccc(Cl)c(Cl)c3)cc1O2 [Compound 9, 3-Amino-7-[3-(3,4-dichlorophenyl)propyl]phenoxazine carboxylic acid]",213 to 216 °C,86 µM,60 µM and > 100 µM,3 µM,8.75 µM,
"O=C(O)c1cc(OCc2ccccc2)cc2c1Nc1ccccc1O2 [Compound 4, 3-(Phenylmethoxy)phenoxazinecarboxylic acid]",,,14 µM,8.4 µM and 45 µM (2×) and 8.44 µM,,> 50 µM
"O=C(O)c1cc([N+](=O)[O-])cc2c1Nc1ccc(CCCc3ccc(Cl)c(Cl)c3)cc1O2 [Compound 7, 7-[3-(3,4-Dichlorophenyl)propyl]-3-nitrophenoxazine carboxylic acid]",,> 100 µM,30 µM and 20 µM and 6 µM,0.5 µM,1.88 µM,
"O=C(/C=C/c1ccc2c(c1)Oc1cc([N+](=O)[O-])cc(C(=O)O)c1N2)c1ccc(Cl)c(Cl)c1 [Compound 6, 7-[3-(3,4-Dichlorophenyl)-3-oxoprop-1-enyl]-3-nitrophenoxazinecarboxylic acid]",> 200 °C,> 100 µM,21 µM and 22 µM and 25 µM,1 µM,4.61 µM,
"O=C(O)c1cc([N+](=O)[O-])cc2c1Nc1ccc(CCC(O)c3ccc(Cl)c(Cl)c3)cc1O2 (stereo not shown) [Compound 8, 7-[3-(3,4-Dichlorophenyl)-3-hydroxypropyl]-3-nitrophenoxazine carboxylic acid]",218 to 220 °C,100 µM,> 100 µM and 100 µM (2×),0.6 µM,4.18 µM,
"O=C(O)c1cc([N+](=O)[O-])cc2c1Nc1cc3ccccc3cc1O2 [Compound 21, 3-nitrobenzo[b]phenoxazinecarboxylic acid]",> 230 °C,67 µM,12 µM and 11 µM and 10 µM,1 µM,6.7 µM,
